# In a melting point compilation (Tetko et al.; mined from patent text by program, amines drawn as free bases though some values may be those of a salt):
row,melting point [°C],Compound
1,251 to 253,Cc1nnc(CNC(=O)CN2C(=O)c3ccccc3C2=O)n1-c1ccc(Cl)cc1C(=O)c1ccccc1
2,109 to 110,CCOC(=O)/C=C/c1ccc(OCc2nc(-c3ccccc3)oc2C)nc1
3,133 to 135,FC(F)C(F)(F)Oc1cccc(Nc2nccc(-c3ccc(Cl)cc3)n2)c1
4,131 to 132,CC(=O)N1CCc2c(cccc2NS(=O)(=O)c2ccccc2)C1
5,180 to 181,NC(=O)CCn1ccn(C2CCc3ccccc3C2)c1=S (configuration not stated)
6,103 to 104,COCC(C1CC1)n1cc(Cl)nc(Nc2cc(C)c(OC(F)F)nc2C)c1=O (configuration not stated)
7,280 to 284,O=C1Nc2ccc(F)c(F)c2C1c1ncnc2nn(C3CCCC3)cc12 (configuration not stated)
8,172,CC(C)c1cccc(C(C)C)c1N1C(=O)c2ccccc2C1=O
9,170 to 174,CCCNc1nc(NCc2ccc(NC(=O)c3ccc(F)cc3)cc2)c2ccc(C)cc2n1
10,181 to 183,Cc1nc(-c2ccc(C(F)(F)F)cc2)sc1CSc1ccc(OCC(=O)O)c2ccccc12
11,123 to 127,CCC(=O)Cc1ccc(C(=O)Nc2ccc3cc(C(C)N4CCCC4)cnc3c2C)cc1 (configuration not stated)
12,177 to 179,CC(=O)Oc1c(OC(C)=O)c([C@H]2CC[C@H](c3ccc(Cl)cc3)CC2)c(OC(C)=O)c2ccccc12
13,198 to 199,O=C1NCc2c(-c3ccccc3)cccc2N1Cc1ccccc1
14,181 to 182,CCCOc1ccccc1-c1nc2nc(NCC)ncc2c(=O)[nH]1
15,125 to 128,CCOC(=O)N(C)CCCC1c2cccc3c2N(CC3)c2ccccc2N1C(C)=O (configuration not stated)
16,193 to 195,CN(Cc1cccc2c1CN(C1CCC(=O)NC1=O)C2=O)C(=O)Nc1cccc(Cl)c1 (configuration not stated)
17,119 to 120,CCCOc1ccc(-c2scc(-c3ccccc3Cl)c2CC(=O)NC(=N)n2cccn2)cc1
18,130,C=CCc1cc(CC(=O)O)ccc1OCc1ccc2ccccc2n1
19,149,Cn1ccnc1-c1ccccc1Nc1nc(Nc2ccc3c(c2)CCC(=O)CC3)ncc1Cl
20,183 to 184,Cc1cccc2cc3c(=O)n(Cc4ccccn4)cc(C(=O)NCCN(C)C)c3nc12
21,260 to 261,COCCCn1c(C(N)=O)cc2c3c(c(-c4ccccc4Cl)cc21)C(=O)NC3=O

# The remaining lines, values behind:
row,Compound,melting point [°C]
1,CCC(=S)NC[C@H]1CN(c2ccc(N3CCOCC3)c(F)c2)C(=O)O1,138 to 139
2,CC(C)(C)OC(=O)N1CCOc2ccc(O)cc2S1(=O)=O,143
3,O=C(NCc1ccccc1)C1=C(c2ccccc2)C(c2ccccc2)OC1=O (configuration not stated),173 to 175
4,CCCc1c(OCCCSc2ccc(CC(=O)OC)c(Cl)c2Cl)ccc(C(C)=O)c1O,82 to 85
5,CC(C)C(C(N)=O)N(C)C(=O)OC(C)(C)C (configuration not stated),181 to 183
6,CCc1oc2ccccc2c1C(=O)c1cc(Br)c(OS(=O)(=O)c2ccc(C(=O)O)c(O)c2)c(Br)c1,173
7,"CN1CCC2=C(CCCC2)C1Cc1ccc(O)cc1 (single isomer, unassigned; (-))",119 to 120
8,CCCSc1cc2c(c3c1OC(C)(C)C3)C(c1cccc(C(=O)OCC)c1)=NC(C)(C)C2,83 to 84
9,CC1OC(Cn2cncn2)(c2ccccc2)C1(C)C (configuration not stated),102
10,CC(C)C1Sc2ccccc2N(CC(=O)O)C1=S (configuration not stated),175 to 176
11,CN(Cc1ccc([N+](=O)[O-])cc1)Cc1nc(-c2cc(C(C)(C)C)c(O)c(C(C)(C)C)c2)cs1,111 to 112
12,N#Cc1c(CCl)[nH]c(=O)[nH]c1=O,229
13,COc1c(F)cc(-c2cncc(OC3SCC(O)C(O)C3O)c2)cc1F (configuration not stated),203
14,Cc1c(NC(=O)OC(C)(C)C)cc2c(c1C)OC(C)(C)C2=O,154 to 155
15,O=C(C=C(Cl)Cl)c1cc(F)c(Cl)cc1Cl,64 to 65
16,COc1cccc(C(=O)C=Cc2cccc(O)c2)c1,74 to 77
